Patent US12338203B2 (TAISHO PHARMACEUTICAL CO., LTD., priority 2019, dated 2025)
Where two headings read alike, the source gives them in different places.

Target: T1, human LPAR1 (Homo sapiens, UniProt Q92633)
T1 construct: expressed in transfected cells
Assay: Test Example 1: antagonism against response of LPA-induced increase in intracellular Ca2+ concentration in RH7777 cells stably expressing human LPAR1
Assay type: cell-based
Method in brief: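 RH7777 cells stably transfected with human LPAR1 were preincubated with test compound 30 min at 37 °C in HBSS/20 mM HEPES/probenecid/0.05% BSA buffer, pH 7.4, then LPA-stimulated.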

[1] = RH7777 cells stably expressing human LPAR1, Fluo-4 fluorescence, FDSS6000, read-out: IC50 value (concentration producing 50% antagonism against response of LPA-induced increase in intracellular Ca2+ concentration) (converted)

T1 sequence (Q92633 whole entry): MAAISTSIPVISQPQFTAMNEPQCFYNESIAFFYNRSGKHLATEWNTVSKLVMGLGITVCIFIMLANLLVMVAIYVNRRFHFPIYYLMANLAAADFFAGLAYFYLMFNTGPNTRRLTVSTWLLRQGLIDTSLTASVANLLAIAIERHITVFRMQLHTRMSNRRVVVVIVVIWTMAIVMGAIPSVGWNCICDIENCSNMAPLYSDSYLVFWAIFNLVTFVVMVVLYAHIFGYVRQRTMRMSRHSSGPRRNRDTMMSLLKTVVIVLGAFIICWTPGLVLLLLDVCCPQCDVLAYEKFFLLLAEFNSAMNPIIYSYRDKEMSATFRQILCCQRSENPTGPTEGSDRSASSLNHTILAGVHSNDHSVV

SMILES | IC50 [1] | IC50
CCOc1cc([C@@H](C)N(CCCCc2ccccc2)C(=O)NC2(c3nnn[nH]3)CC(F)(F)C2)cc(OCC)c1C(C)=O [Example 10-7, N-[(1R)-1-(4-Acetyl-3,5-Diethoxyphenyl)Ethyl]-N′-[3,3-Difluoro-1-(1H-Tetrazol-5-Yl)Cyclobutyl]-N-(4-Phenylbutyl) Urea] | 2.97 nM | 
CCOc1cc(C(C)N(CCCCc2ccccc2)C(=O)NC(Cc2ccccc2)C(=O)O)cc(OCC)c1C (stereo not shown) [Example 1-8] | 125 nM | 
COc1cc(CN(CCCCc2ccccc2)C(=O)NC(CC(C)C)C(=O)O)cc(OC)c1C (stereo not shown) [Example 1-5] |  | 4680 nM
CCCCC(NC(=O)N(CCCCc1ccccc1)Cc1cc(OC)c(C)c(OC)c1)C(=O)O (stereo not shown) [Example 1-3] |  | 1800 nM
CC(c1ccc2c(c1)OCCO2)N(CCCCc1ccccc1)C(=O)NC1(C(=O)O)CC(F)(F)C1 (stereo not shown) [Example 5-91] | 711 nM | 
O=C(NC1(C(=O)O)CC(F)(F)C1)N(CCCCc1ccccc1)C1COc2c(Cl)cc(Cl)cc21 (stereo not shown) [Example 5-117] | 5.59 nM | 
CCOc1cc([C@@H](C)N(CCC(F)(F)Cc2ccccc2)C(=O)NC2(C(=O)O)CCOCC2)c(Cl)c(OCC)c1C(C)O (stereo partly drawn) [Example 5-68, 4-{[{(1R)-1-[2-Chloro-3,5-Diethoxy-4-(1-Hydroxyethyl)Phenyl]Ethyl}(3,3-Difluoro-4-Phenylbutyl) Carbamoyl]Amino}Oxane-4-Carboxylic Acid] | 31 nM | 
CCOc1c(C2CC2)ccc([C@@H](C)N(CCO[C@H](C)c2ccccc2)C(=O)NC2(C(=O)O)CC(F)(F)C2)c1C [Example 4-172] | 2.43 nM | 
CCOc1cc([C@@H](C)N(CCCCc2ccccc2)C(=O)NC2(C(=O)O)CCS(=O)(=O)CC2)cc(OCC)c1C [Example 1-157] | 3.24 nM | 
CCOc1cc([C@@H](C)N(CCCC(F)(F)c2ccccc2)C(=O)NC2(C(=O)O)CCOCC2)cc(OCC)c1C(C)O (stereo partly shown) [Example 4-77] | 5.87 nM | 
CCOc1cc([C@@H](C)N(CCCCc2ccccc2)C(=O)NC2(C(=O)O)CC(F)(F)C2)cc(OCC)c1C(C)O (single isomer, unassigned) [Example 1-36] | 1.04 nM | 
CCOc1cc(C(C)N(CCCC(F)(F)c2ccccc2)C(=O)NC2(C(=O)O)CC2)cc(OCC)c1C(C)O (stereo not shown) [Example 4-48] | 2.55 nM | 
CCOC(=O)C1(NC(=O)N(CCO[C@@H](C)c2ccccc2)C(C)c2cc(OCC)c(C(C)=O)c(OCC)c2Cl)CC(F)(F)C1 (stereo partly shown) [Example 6-12] | 1270 nM | 
CCOc1cc(C(C)N(CCCCc2ccccc2)C(=O)NC2(C(=O)O)CC(F)(F)C2)ccc1C(C)O (stereo not shown) [Example 5-9] | 2.82 nM | 
CCOc1cc([C@@H](C)N(CCCCc2ccccc2)C(=O)NC2(C(=O)O)CCCCCC2)cc(OCC)c1C [Example 1-119] | 53.6 nM | 
CCNc1cc([C@@H](C)N(CCCCc2ccccc2)C(=O)NC2(C(=O)O)CC(F)(F)C2)cc(OCC)c1C#N [Example 5-115] | 2.34 nM | 
CCOc1cc([C@@H](C)N(CCC(F)(F)Cc2ccccc2)C(=O)NC2CC(C(=O)O)C2)cc(OCC)c1C1CC1 (stereo partly shown) [Example 4-83] | 80.8 nM | 
CCOc1cc(C(C)N(CCCCc2ccccc2)C(=O)NC2(C(=O)O)CC(F)(F)C2)cc(OCC)c1C1(O)CC1 (stereo not shown) [Example 1-38] | 5.4 nM | 
CCOc1cc([C@@H](C)N(CCC(F)(F)Cc2ccccc2)C(=O)NC2(C(=O)O)CCOCC2)c(Cl)c(OCC)c1C(C)O (stereo partly drawn) [Example 5-67, 4-{[{(1R)-1-[2-Chloro-3,5-Diethoxy-4-(1-Hydroxyethyl)Phenyl]Ethyl}(3,3-Difluoro-4-Phenylbutyl) Carbamoyl]Amino}Oxane-4-Carboxylic Acid] | 43.4 nM | 

Now from value to molecule, other results behind:

IC50 [1] | SMILES | IC50
3.34 nM | CCOc1cc([C@@H](C)N(CCCC(F)(F)c2ccccc2)C(=O)N[C@]2(C(=O)O)C[C@@H](OCC)C2)cc(OCC)c1C(C)=O [Example 4-44, Trans-1-({[(1R)-1-(4-Acetyl-3,5-Diethoxyphenyl)Ethyl](4,4-Difluoro-4-Phenylbutyl) Carbamoyl}Amino)-3-Ethoxycyclobutane-1-Carboxylic Acid] | 
5640 nM | CCOc1cc(C(C)N(CCCCc2ccccc2)C(=O)NC2(C(=O)O)CC(F)(F)C2)cc(OCC)c1C(=O)O (stereo not shown) [Example 1-39] | 
3.88 nM | CCOc1cc([C@@H](C)N(CCCCc2ccccc2)C(=O)N[C@]2(C(=O)O)C[C@H](OC)C2)c(Cl)c(OCC)c1C(C)=O [Example 5-49] | 
1.02 nM | COc1cc(C(C)N(CCOCc2ccccc2)C(=O)NC2(C(=O)O)CC(F)(F)C2)c(C)c(OC)c1C1CC1 (stereo not shown) [Example 5-146] | 
4.63 nM | CCOc1cc([C@@H](C)N(CCO[C@@H](C)c2ccccc2)C(=O)N[C@]2(C(=O)O)C[C@H](OC)C2)c(Cl)c(OCC)c1C(C)=O [Example 5-29] | 
1.01 nM | CCOc1cc(C(C)N(CCOCc2ccccc2)C(=O)NC2(C(=O)O)CC(OCC)C2)c(C)c(OCC)c1C1CC1 (stereo not shown) [Example 5-215] | 
10.9 nM | CCOC1CC(NC(=O)N(CCOCc2ccccc2)[C@H](C)c2cc(OC)c(C(C)=O)c(OC)c2)(C(=O)O)C1 (stereo partly shown) [Example 5-125] | 
3.54 nM | CCOc1cc([C@@H](C)N(CCCCc2ccccc2)C(=O)NC2(C(=O)O)CCC2)cc(OCC)c1C [Example 1-24] | 
3.99 nM | CCOc1cc([C@@H](C)N(CCCC(F)(F)c2ccccc2)C(=O)NC2(C(=O)O)CC(OC)C2)cc(OCC)c1C(C)O (single isomer, unassigned) [Example 4-61] | 
4.97 nM | COc1cc(C(C)N(CCOCc2ccccc2)C(=O)NC2(C(=O)O)CCC2)c(Cl)c(OC)c1C(C)=O (stereo not shown) [Example 5-132] | 
1.45 nM | CCOc1cc(C(C)N(CCOCc2ccccc2)C(=O)NC2(C(=O)O)CCC2)c(C)c(OCC)c1C(C)=O (stereo not shown) [Example 5-191] | 
2.56 nM | CCOc1cc(C(C)N(CCO[C@@H](C)c2ccccc2)C(=O)NC2(C(=O)O)CC(OCC)C2)c(Cl)c(OCC)c1C1CC1 (stereo partly shown) [Example 5-216] | 
2.54 nM | CCOc1cc([C@@H](C)N(CCO[C@@H](C)c2ccccc2)C(=O)NC2(C(=O)O)CCC2)cc(OCC)c1C(C)=O [Example 4-114] | 
10.3 nM | CCOc1cc([C@@H](C)N(CCC(F)(F)Cc2ccccc2)C(=O)NC2(C(=O)O)CC(OC)C2)c(Cl)c(OCC)c1C(C)=O (stereo partly shown) [Example 5-41] | 
1.59 nM | CCOc1cc([C@@H](C)N(CCCC(F)(F)c2ccccc2)C(=O)NC2(C(=O)O)CC2)cc(OCC)c1C(C)=O [Example 4-45] | 
3.68 nM | CCOc1c(C(C)=O)ccc([C@@H](C)N(CCO[C@H](C)c2ccccc2)C(=O)NC2(C(=O)O)CC(OC)C2)c1C (stereo partly shown) [Example 4-154] | 
3.63 nM | CCOc1cc([C@@H](C)N(CCO[C@@H](C)c2ccccc2)C(=O)N[C@]2(C(=O)O)C[C@@H](OCC)C2)cc(OCC)c1C(C)=O [Example 4-97, Trans-1-[([(1R)-1-(4-Acetyl-3,5-Diethoxyphenyl)Ethyl]{2-[(1S)-1-Phenylethoxy]Ethyl}Carbamoyl)Amino]-3-Ethoxycyclobutane-1-Carboxylic Acid] | 
3.35 nM | CCOc1cc([C@@H](C)N(CCCCc2ccccc2)C(=O)NC2(C(=O)O)CC(OC)C2)cc(OCC)c1C(C)O (single isomer, unassigned) [Example 1-88] | 
1.62 nM | CCOc1cc([C@@H](C)N(CCOCc2ccccc2)C(=O)N[C@]2(C(=O)O)C[C@@H](OC)C2)c(Cl)c(OCC)c1C(C)=O [Example 5-36] | 
4.39 nM | CCOc1c(C(C)=O)ccc([C@@H](C)N(CCO[C@H](C)c2ccccc2)C(=O)NC2(C(=O)O)CC(OCC)C2)c1C (stereo partly shown) [Example 4-158] | 
4.16 nM | CCOc1cc(C(C)N(CCOC(C)c2ccccc2)C(=O)NC2(C(=O)O)CC2)c(Cl)c(OCC)c1C(C)=O (stereo not shown) [Example 5-187] | 
